{"source": "patent US20230024521A1", "about": "“JAK INHIBITORS” (Vimalan Biosciences, Inc., priority 2019, published 2023)", "key": {"JAK2": {"target": "JAK2 (Homo sapiens, UniProt O60674)", "sequence (O60674 whole entry, species assumed)": "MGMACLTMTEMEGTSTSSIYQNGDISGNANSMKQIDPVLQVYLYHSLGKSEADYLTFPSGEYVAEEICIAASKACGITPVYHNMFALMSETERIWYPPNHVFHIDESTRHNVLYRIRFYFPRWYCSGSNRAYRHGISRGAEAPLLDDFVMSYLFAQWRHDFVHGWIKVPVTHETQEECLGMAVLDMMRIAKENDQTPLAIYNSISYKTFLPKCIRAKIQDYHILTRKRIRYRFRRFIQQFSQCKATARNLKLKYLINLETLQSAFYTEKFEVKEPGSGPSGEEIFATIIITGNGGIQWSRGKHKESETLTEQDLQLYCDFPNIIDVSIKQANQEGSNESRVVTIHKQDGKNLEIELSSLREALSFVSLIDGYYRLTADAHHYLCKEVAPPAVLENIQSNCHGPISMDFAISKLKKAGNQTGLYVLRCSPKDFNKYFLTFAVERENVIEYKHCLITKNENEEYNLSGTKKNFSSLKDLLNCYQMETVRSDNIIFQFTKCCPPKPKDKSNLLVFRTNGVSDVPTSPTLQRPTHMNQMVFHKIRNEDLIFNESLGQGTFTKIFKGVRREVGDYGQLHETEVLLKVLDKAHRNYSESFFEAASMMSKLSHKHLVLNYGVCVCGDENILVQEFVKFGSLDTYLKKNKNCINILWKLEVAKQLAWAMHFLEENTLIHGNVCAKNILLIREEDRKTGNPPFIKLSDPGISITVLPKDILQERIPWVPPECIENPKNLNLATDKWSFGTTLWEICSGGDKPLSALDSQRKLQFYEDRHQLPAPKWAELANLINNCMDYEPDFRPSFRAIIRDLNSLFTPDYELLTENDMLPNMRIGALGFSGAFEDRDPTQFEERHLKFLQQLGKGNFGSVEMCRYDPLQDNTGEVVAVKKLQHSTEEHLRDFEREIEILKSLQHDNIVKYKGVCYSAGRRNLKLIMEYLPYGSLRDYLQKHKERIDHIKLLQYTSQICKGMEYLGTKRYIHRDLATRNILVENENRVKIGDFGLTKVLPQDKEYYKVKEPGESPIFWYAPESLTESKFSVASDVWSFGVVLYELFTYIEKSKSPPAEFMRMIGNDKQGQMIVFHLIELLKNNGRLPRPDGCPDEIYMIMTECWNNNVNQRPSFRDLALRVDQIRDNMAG", "assay": "JAK/TYK2 assay (Kinase Glo luminescence): Jak2 kinase assay", "type": "biochemical", "conditions": "0.8 nM enzyme, 2 uM ATP, 4 uM pEY, 1 hr; read-out: Jak2 kinase assay: IC50 Geomean", "description": "(§1) Example A: JAK/TYK2 Assay 10 mM test compound stock or 1 mM control compound stock (tofocitinib, ruxolitinib or staurosporine) in DMSO was diluted to 0.4 mM in DMSO. A 3-fold series dilution was then performed in DMSO to generate 10 different compound concentrations. The assay was carried out in 384-well white plate. 0.5 μL of 40× compound DMSO solution at different concentrations was mixed with 10 uL 2× enzyme prepared in reaction buffer (20 mM HEPES, 10 mM MgCl2, 0.01% Tween, 1 mM DTT, pH 7.5). 10 uL 2× substrate mixture prepared in reaction buffer was then added to start the reaction. A short spin was done to settle down all solutions to the bottom of the plate. Final concentrations of test compound in the reaction mixture were 10000, 3333, 1111, 370, 123, 41.2, 13.7, 4.57, 1.52 and 0.51 nM, Concentrations of control compound were ten times less. Enzymatic reaction was conducted at 25° C. for 1-2 hours. 10 uL of Kinase Glo Reagents was added to stop the reaction and generate the luminescent signal which was measured using Envision. Luminescence signal was inversely related to kinase activity. […] The mixture without any compound was the positive control. [table]"}, "JAK3": {"target": "T1, JAK3 (Homo sapiens, UniProt P52333)", "T1 sequence (P52333 1-1124)": "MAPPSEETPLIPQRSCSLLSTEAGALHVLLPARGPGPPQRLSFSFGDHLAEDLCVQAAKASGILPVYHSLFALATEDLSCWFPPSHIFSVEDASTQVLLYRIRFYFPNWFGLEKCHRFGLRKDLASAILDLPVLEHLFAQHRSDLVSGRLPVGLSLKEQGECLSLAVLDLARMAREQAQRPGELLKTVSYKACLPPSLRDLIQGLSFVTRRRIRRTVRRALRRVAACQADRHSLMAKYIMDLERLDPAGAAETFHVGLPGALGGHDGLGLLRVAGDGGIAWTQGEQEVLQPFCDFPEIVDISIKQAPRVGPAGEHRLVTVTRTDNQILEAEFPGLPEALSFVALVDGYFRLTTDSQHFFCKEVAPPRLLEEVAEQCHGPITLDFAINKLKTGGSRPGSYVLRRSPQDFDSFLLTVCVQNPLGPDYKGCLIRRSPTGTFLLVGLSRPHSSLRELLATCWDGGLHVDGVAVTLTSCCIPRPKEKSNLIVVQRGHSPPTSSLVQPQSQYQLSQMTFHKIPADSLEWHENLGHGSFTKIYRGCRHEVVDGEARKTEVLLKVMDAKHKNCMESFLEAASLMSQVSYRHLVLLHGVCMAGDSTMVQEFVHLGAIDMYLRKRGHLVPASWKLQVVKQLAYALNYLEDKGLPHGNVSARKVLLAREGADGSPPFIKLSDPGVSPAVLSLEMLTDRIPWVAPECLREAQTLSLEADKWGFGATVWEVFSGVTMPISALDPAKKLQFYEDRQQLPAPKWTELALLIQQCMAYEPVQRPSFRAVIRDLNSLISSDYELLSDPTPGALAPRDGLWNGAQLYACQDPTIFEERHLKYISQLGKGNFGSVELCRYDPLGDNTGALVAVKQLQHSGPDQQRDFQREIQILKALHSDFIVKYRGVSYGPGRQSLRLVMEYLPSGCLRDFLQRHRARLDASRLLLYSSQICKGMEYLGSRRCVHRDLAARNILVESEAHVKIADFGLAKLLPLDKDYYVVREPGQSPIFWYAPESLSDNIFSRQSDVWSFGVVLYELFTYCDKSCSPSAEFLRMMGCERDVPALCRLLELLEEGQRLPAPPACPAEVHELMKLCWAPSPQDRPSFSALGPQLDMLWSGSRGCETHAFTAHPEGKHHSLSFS", "assay": "JAK/TYK2 assay (Kinase Glo luminescence): Jak3 kinase assay", "type": "biochemical", "conditions": "1.5 nM enzyme, 2 uM ATP, 4 uM pEY, 1 hr; read-out: Jak3 kinase assay: IC50 Geomean", "description": "as §1"}, "JAK1": {"target": "JAK1 (Homo sapiens, UniProt P23458)", "sequence (P23458 whole entry, species assumed)": "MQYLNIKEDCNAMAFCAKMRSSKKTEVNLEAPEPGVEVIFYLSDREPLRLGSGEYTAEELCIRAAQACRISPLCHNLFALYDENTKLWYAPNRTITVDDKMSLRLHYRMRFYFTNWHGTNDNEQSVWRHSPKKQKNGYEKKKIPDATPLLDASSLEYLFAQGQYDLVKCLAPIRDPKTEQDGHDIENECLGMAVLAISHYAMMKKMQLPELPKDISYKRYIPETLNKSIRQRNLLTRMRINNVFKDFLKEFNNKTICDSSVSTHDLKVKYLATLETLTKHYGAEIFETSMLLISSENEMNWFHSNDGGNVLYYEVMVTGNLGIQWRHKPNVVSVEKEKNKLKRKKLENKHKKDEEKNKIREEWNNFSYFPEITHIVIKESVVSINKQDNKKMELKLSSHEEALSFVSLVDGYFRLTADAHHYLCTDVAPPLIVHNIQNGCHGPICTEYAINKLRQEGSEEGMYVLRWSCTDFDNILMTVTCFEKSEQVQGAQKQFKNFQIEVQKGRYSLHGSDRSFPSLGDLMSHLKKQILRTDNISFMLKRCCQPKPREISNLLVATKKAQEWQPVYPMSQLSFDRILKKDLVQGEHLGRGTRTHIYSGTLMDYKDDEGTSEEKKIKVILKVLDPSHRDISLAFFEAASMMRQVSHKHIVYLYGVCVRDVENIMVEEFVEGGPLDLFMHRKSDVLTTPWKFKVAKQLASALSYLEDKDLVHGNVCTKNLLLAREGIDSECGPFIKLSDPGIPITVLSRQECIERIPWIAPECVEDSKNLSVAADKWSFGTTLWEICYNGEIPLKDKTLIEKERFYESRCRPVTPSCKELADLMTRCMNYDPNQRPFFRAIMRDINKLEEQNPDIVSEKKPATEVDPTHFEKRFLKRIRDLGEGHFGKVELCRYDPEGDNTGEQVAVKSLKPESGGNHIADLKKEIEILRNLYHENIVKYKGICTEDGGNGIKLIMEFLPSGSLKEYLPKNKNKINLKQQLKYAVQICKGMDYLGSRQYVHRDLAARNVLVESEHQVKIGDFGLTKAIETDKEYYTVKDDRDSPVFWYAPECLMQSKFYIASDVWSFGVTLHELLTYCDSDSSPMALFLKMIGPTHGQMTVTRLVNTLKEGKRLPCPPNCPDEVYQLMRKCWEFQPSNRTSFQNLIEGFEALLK", "assay": "JAK/TYK2 assay (Kinase Glo luminescence): Jak1 kinase assay", "type": "biochemical", "conditions": "7.5 nM enzyme, 2 uM ATP, 30 uM IRS-1, 1 hr", "description": "as §1"}, "TYK2": {"target": "TYK2 (Homo sapiens, UniProt P29597)", "sequence (P29597 whole entry, species assumed)": "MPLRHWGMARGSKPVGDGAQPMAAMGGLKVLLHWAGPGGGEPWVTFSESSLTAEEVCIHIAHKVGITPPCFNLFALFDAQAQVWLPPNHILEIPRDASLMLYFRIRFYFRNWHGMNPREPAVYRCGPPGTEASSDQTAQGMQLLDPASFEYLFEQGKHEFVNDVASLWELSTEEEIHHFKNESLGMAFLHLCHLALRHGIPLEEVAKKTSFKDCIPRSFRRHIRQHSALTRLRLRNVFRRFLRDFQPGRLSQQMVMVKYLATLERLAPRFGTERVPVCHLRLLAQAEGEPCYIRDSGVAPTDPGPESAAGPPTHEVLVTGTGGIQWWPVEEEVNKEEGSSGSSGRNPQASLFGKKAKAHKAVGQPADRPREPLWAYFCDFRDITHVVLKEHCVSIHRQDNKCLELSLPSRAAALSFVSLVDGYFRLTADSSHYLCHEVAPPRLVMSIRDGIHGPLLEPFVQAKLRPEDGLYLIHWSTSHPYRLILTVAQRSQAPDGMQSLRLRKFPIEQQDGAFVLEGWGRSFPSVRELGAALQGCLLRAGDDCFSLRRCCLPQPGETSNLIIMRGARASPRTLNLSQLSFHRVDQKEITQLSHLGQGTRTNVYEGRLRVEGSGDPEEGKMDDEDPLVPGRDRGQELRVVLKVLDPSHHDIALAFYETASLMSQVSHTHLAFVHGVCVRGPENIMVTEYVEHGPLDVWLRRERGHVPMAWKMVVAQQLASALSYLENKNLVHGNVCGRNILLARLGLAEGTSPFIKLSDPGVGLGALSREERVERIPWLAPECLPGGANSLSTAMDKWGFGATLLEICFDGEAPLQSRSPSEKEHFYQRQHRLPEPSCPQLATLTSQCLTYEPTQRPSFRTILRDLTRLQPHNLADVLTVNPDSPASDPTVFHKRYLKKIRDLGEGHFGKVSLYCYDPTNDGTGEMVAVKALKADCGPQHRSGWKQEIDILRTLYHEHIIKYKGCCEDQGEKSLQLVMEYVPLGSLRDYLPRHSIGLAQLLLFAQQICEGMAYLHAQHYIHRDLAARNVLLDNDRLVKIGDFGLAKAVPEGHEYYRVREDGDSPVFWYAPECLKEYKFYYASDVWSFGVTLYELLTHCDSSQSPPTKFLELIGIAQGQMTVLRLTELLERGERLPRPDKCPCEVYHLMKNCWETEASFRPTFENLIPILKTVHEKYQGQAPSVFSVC", "assay": "JAK/TYK2 assay (Kinase Glo luminescence): Tyk2 kinase assay", "type": "biochemical", "conditions": "9 nM enzyme, 2 uM ATP, 30 uM IRS-1, 1 hr; read-out: Tyk2 kinase assay: IC50 Geomean", "description": "as §1"}, "[1]": {"tested_on": "JAK2: GM-CSF stimulated STAT5 phosphorylation", "assay": "Co-stimulation assay in lysed whole blood; JAK2: GM-CSF stimulated STAT5 phosphorylation", "type": "cell-based, human", "conditions": "Homo sapiens, read-out: GMCSF/J2/pS5: GeoMean (nM)", "description": "Example C: Co-Stimulation Assay in Lysed Whole Blood; JAK2: GM-CSF Stimulated STAT5 Phosphorylation and JAK1/TYK2 Stimulated STAT1 Phosphorylation Assay\nHuman Blood Lysis using abcam's RBC lysis buffer\nDilute RBC lysis buffer to 1× in distilled water. Add 2 mL blood to 38 mL of 1×RBC-lysis buffer. Incubate for 15 mins at RT, in dark. Spin at 300 g, 5 mins, to collect the pellet. Re-lyse if necessary. Re-suspend pellet in 5 mL of cRPMI.\nAliquot 80 μL of lysed human blood in to wells of 96 deep-well plate. Add 10 μl of (10× conc.) of different concentrations of compounds to all wells except controls (unstained and unstimulated) and mix it with the help of 100 uL multichannel Add 10 uL of RPMI media in controls. For dilution of compounds and dilution range please refer Appendix. Incubate on water bath or CO2 incubator for 1 hour at 37° C. Add 10 μl of (10× conc.) of cytokine mix (GM-CSF and IFNa) (final conc. 10 ng/mL of GM-CSF and 100 ng/mL of IFNa) to each well except unstimulated and unstained controls and incubate further for 20 minutes on water bath at 37° C.\nAdd 900 μL of prewarmed 1× Fix/Lyse solution (Appendix) and mix it properly using 1000 μl multichannel, incubate further on water bath at 37° C. for 10 minutes (which includes time of addition). Centrifuge at 800×g for 5 minutes at 40° C.; remove 900 uL of supernatant and add 900 μL of 1×PBS. Centrifuge at 800×g for 5 minutes at 40° C., remove 900 μL of supernatant. Wash one more time with 900 μL of PBS (optional) and resuspend pellets in 100 uL of PBS.\nDisrupt the pellet by gentle tapping and resuspend in 1000 μL of BD Phosflow Perm Buffer III and incubate plate on ice for 30 minutes. Centrifuge plate at 800×g for 5 minutes at 40° C. Wash two more times with 1000 μL of BD Pharmingen Stain Buffer.\nDisrupt the pellet by gentle tapping. Resuspend pellets in 100 uL of Stain Buffer and add 5 μL of pSTAT5_AF488 Ab and 5 uL of pSTAT1_PE in all wells except unstained control and mix properly using 200 μl multichannel, incubate overnight at […]. Add 900 μL of wash buffer and centrifuge at 1800 rpm for 3 minutes at […]. Wash one more time with 1000 μL of BD Pharmingen Stain Buffer. Finally resuspend the pellet in 300 uL of BD Pharmingen Stain Buffer. Transfer the cells to 96-well v-bottom plate and acquire the cells in Beckman Coulter CytExpert. Acquiring cells in Flow Cytometer: Keep the threshold value to 250 and cell concentration should not exceed 100-500 cells/4. Acquire at least 5,000-10,000 cells.\nRPMI 1640 Complete Medium: RPMI 1640 media+10% FBS.\nCytokine dilution: 1) GM-CSF Stock at 100 ug/mL. Prepare an intermediate dilution of 1 ug/mL by adding 2 uL of stock into 198 uL of cRPMI. Further dilute to 100 ng/mL by adding 100 uL of the intermediate stock to 900 uL of cRPMI. 2) IFNa Stock at 200 ug/mL. Dilute IFNa stock 1:200 by adding 5 uL of stock into the 1000 uL of 100 ng/mL GM-CSF working stock as above to give a combined working stock of 1000 ng/mL of IFNa and 100 ng/mL GM-CSF (10×). Keep it on ice until used.\nLyse/Fix buffer preparation: Dilute 5× Lyse/Fix buffer to 1× using MQ water and keep at 37° C. until used.\nBD Phosflow perm buffer III: Keep on ice/fridge"}}, "data": [{"smiles": "CC[C@H](Cn1ccc2cnc(Nc3cnn(CC(=O)Nc4ccncc4)c3)nc21)C(C)C", "note": "[Example 2, (5)-2-(4-((7-(2-ethyl-3-methylbutyl)-7H-pyrrolo[2,3-d]pyrimidin-2-yl)amino)-1H-pyrazol-1-yl)-N-(pyridin-4-yl) acetamide]", "values": [{"measurement": "IC50", "setting": "JAK2", "value": "< 0.1", "unit": "µM"}, {"measurement": "IC50", "setting": "JAK3", "value": "< 0.1", "unit": "µM"}, {"measurement": "IC50", "setting": "JAK1", "value": "< 0.1", "unit": "µM"}, {"measurement": "IC50", "setting": "TYK2", "value": "< 0.1", "unit": "µM"}, {"measurement": "IC50", "setting": "[1]", "value": "1000 to 10000", "unit": "nM"}]}, {"smiles": "CCC(CC)Cn1ccc2cnc(Nc3cnn(CC(=O)NC)c3)nc21", "note": "[Example 6, 2-(4-((7-(2-ethylbutyl)-7H-pyrrolo[2,3-d]pyrimidin-2-yl)amino)-1H-pyrazol-1-yl)-N-methylacetamide]", "values": [{"measurement": "IC50", "setting": "JAK2", "value": "< 0.1", "unit": "µM"}, {"measurement": "IC50", "setting": "JAK3", "value": "< 0.1", "unit": "µM"}, {"measurement": "IC50", "setting": "JAK1", "value": "< 0.1", "unit": "µM"}, {"measurement": "IC50", "setting": "TYK2", "value": "< 0.1", "unit": "µM"}, {"measurement": "IC50", "setting": "[1]", "value": "100 to 1000", "unit": "nM"}]}, {"smiles": "CCC(CC)Cn1ccc2cnc(Nc3cnn(CC(=O)N(C)C)c3)nc21", "note": "[Example 5, 2-(4-((7-(2-ethylbutyl)-7H-pyrrolo[2,3-d]pyrimidin-2-yl)amino)-1H-pyrazol-1-yl)-N, N-dimethylacetamide]", "values": [{"measurement": "IC50", "setting": "JAK2", "value": "< 0.1", "unit": "µM"}, {"measurement": "IC50", "setting": "JAK3", "value": "< 0.1", "unit": "µM"}, {"measurement": "IC50", "setting": "JAK1", "value": "< 0.1", "unit": "µM"}, {"measurement": "IC50", "setting": "TYK2", "value": "< 0.1", "unit": "µM"}, {"measurement": "IC50", "setting": "[1]", "value": "1000 to 10000", "unit": "nM"}]}, {"smiles": "CC[C@H](Cn1ccc2cnc(Nc3cnn(CC(=O)N(C)S(C)(=O)=O)c3)nc21)C(C)C", "note": "[Example 4, (5)-2-(4-((7-(2-ethyl-3-methylbutyl)-7H-pyrrolo[2,3-d]pyrimidin-2-yl)amino)-1H-pyrazol-1-yl)-N-methyl-N-(methylsulfonyl) acetamide]", "values": [{"measurement": "IC50", "setting": "JAK2", "value": "< 0.1", "unit": "µM"}, {"measurement": "IC50", "setting": "JAK3", "value": "< 0.1", "unit": "µM"}, {"measurement": "IC50", "setting": "JAK1", "value": "< 0.1", "unit": "µM"}, {"measurement": "IC50", "setting": "TYK2", "value": "< 0.1", "unit": "µM"}, {"measurement": "IC50", "setting": "[1]", "value": "100 to 1000", "unit": "nM"}]}]}
